Here are results for seven molecules from patent publication US4929626A, “α-substituted 4-(quinolin-2-yl-methoxy)phenylacetic acids and esters and lipoxygenase inhibition therewith” (Bayer Aktiengesellschaft, priority 1988, dated 1990).

Structures can show the parent of a compound that is named as a salt.

The test system of test [1] is mouse ear inflammation. Put plainly: Mouse ear inflammation model (in vivo activity). The note with it: 100 mg/kg p.o. Here is the method: (§1) The pharmacological activity data of the substances according to the invention are determined by the following method: As a measure of the lipoxygenase inhibition, the release of leukotriene B4 (LTB4) by polymorphonuclear rat leukocytes (PMN) was determined after addition of substances and Ca ionophore by means of reverse phase HPLC according to Borgeat, P. et al., Proc. Nat. Acad. Sci. 76, 2148-2152 (1979). The in vivo activity of the compounds was determined using the mouse ear inflammation model according to Young, J. M. et al., J. of Investigative Dermatology 82, 367-371 (1984).

Test [2] has as its system lipoxygenase. The test is described as follows: Lipoxygenase inhibition: release of leukotriene B4 (LTB4) by polymorphonuclear rat leukocytes (PMN) after Ca ionophore, reverse phase HPLC. The format is cell-based. Here is the method: as §1

For the molecule `C/C=C/CC(C(=O)OC)c1ccc(OCc2ccc3ccccc3n2)cc1` (stereo not shown) [Example 12, Methyl E-2-[4-(quinolin-2-yl-methoxy)phenyl]-4-hexenoate], in test [1], the “Inhibition of inflammation %” value is reported as 59%. In the case of `CCCCC(C(=O)O)c1ccc(OCc2ccc3ccccc3n2)cc1` (stereo not shown) [Example 20, 2-[4-(Quinolin-2-yl-methoxy)phenyl]caproic acid], the IC50 (commonly the concentration that gives 50% inhibition) in test [2] stood at 55 nM. For the same molecule, the “Inhibition of inflammation %” value in test [1] came to 68%. With `CC(C)=CCC(C(=O)O)c1ccc(OCc2ccc3ccccc3n2)cc1` (stereo not shown) [Example 22, 2-[4-(Quinolin-2-yl-methoxy)phenyl]-5-methyl-4-hexenoic acid], the “Inhibition of inflammation %” value in test [1] worked out at 77%.

Turning to `CCCCC(C(=O)OCC(=O)O)c1ccc(OCc2ccc3ccccc3n2)cc1` (stereo not shown) [Example 29, Carboxymethyl 2-[4-(quinolin-2-yl-methoxy)phenyl]caproate], the IC50 in test [2] amounted to 55 nM. For the same molecule, the “Inhibition of inflammation %” value in test [1] is 72%. Turning to `CCCCC(C(=O)OCC(=O)OC)c1ccc(OCc2ccc3ccccc3n2)cc1` (stereo not shown) [Example 27, Methoxycarbonylmethyl 2-[4-(quinolin-2-yl-methoxy)phenyl]caproate hydrochloride], inhibition in test [2] was half-maximal at 63 nM (IC50).

As for `CCCCCC(O)c1cccc(OCc2ccc3ccccc3n2)c1` (stereo not shown) [2-[3-(1-hydroxyhexyl)phenoxymethyl]quinoline, reference compound], in test [2], the IC50 is 200 nM. Further, the “Inhibition of inflammation %” value in test [1] is 24%. Regarding `CCCCCC(C(=O)OC)c1ccc(OCc2ccc3ccccc3n2)cc1` (stereo not shown) [Example 10, Methyl 2-[4-(quinolin-2-yl-methoxy)phenyl]heptanoate], in test [1], the “Inhibition of inflammation %” value was determined as 61%.
